Measurements published in ChEMBL document CHEMBL1201862, “PubChem BioAssay data set” (2004).
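Method: 48-hour compound exposure of cells in 96-well plates, five concentrations, linear interpolation of endpoints. Here, GI50 denotes the concentration required for 50% inhibition of growth.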 Activity calls are given as the source filed them. No stated cut-off is given here; in the data, active = GI50 up to about 1.1 µM and inactive = higher.

Key:
Experiment in all cases: NCI anticancer screen, dose series, 48 h
LXFL 529 = system: LXFL 529
M19-MEL = system: M19-MEL
KM-20L2 = system: KM-20L2
DMS-273 = system: DMS-273
DMS-114 = system: DMS-114
DLD-1 = system: DLD-1
RXF 631 = system: RXF 631
XF498 = system: XF498
HOP-18 = system: HOP-18

Compound | GI50 (LXFL 529) | GI50 (M19-MEL) | GI50 (KM-20L2) | GI50 (DMS-273) | GI50 (DMS-114) | GI50 (DLD-1) | GI50 (RXF 631) | GI50 (XF498) | GI50 (HOP-18)
CC(C)Cn1cnc2c(Sc3c([N+](=O)[O-])ncn3C)nc(N)nc21 | > 100 µM (inactive) | > 100 µM (inactive) | > 100 µM (inactive) | > 100 µM (inactive) | > 100 µM (inactive) |  |  |  | 
O=C1[C@H](Cl)[C@H]2c3cc4ccccc4nc3Oc3ccccc3N12 | 34 µM (inactive) | 34.8 µM (inactive) | 43.4 µM (inactive) | 33.3 µM (inactive) | 20.9 µM (inactive) | 84.9 µM (inactive) |  |  | 
Cc1cccc(C)c1NC(=O)CCCC(=O)C(C#N)c1ccccc1 (stereo unspecified) | > 100 µM (inactive) | > 100 µM (inactive) | > 10 µM (inactive) | > 10 µM (inactive) |  | > 100 µM (inactive) | > 100 µM (inactive) | > 10 µM (inactive) | 
CC1=C(O)C(=O)C2C(=O)C1C1Cc3ccccc3C21 (stereo unspecified) | > 100 µM (inactive) | > 100 µM (inactive) |  | > 100 µM (inactive) |  | > 100 µM (inactive) | > 100 µM (inactive) | > 100 µM (inactive) | 
O=C(CO)C1CC2C=CC1C2 (stereo unspecified) | > 100 µM (inactive) | > 100 µM (inactive) |  | > 100 µM (inactive) | > 100 µM (inactive) |  | > 100 µM (inactive) | > 100 µM (inactive) | 
CCN(CC)C(=O)C/C(C)=N/NC(=O)c1ccncc1 | > 100 µM (inactive) |  | > 100 µM (inactive) | > 100 µM (inactive) | > 100 µM (inactive) | > 100 µM (inactive) |  | > 100 µM (inactive) | 
O=[N+]([O-])[C@@H]1C2C=CC(C2)[C@H]1Cl (stereo partly specified) | > 100 µM (inactive) | > 100 µM (inactive) |  | > 100 µM (inactive) | > 100 µM (inactive) | > 100 µM (inactive) | > 100 µM (inactive) | > 100 µM (inactive) | > 100 µM (inactive)
c1ccc2c(c1)OCCOCCOc1ccccc1OCCO2 | 68.5 µM (inactive) | 41.9 µM (inactive) | 29.8 µM (inactive) | 41.2 µM (inactive) | 84.1 µM (inactive) | 61.9 µM (inactive) |  |  | 34.2 µM (inactive)
Cc1cc(CS(=O)(=O)/C=C/c2ccccc2[N+](=O)[O-])c(CS(=O)(=O)/C=C/c2ccccc2[N+](=O)[O-])cc1C | > 100 µM (inactive) | > 100 µM (inactive) | > 100 µM (inactive) | > 100 µM (inactive) | 45.1 µM (inactive) |  |  | 15.5 µM (inactive) | 
O=C(O)c1c2c(c(C(=O)O)c3ccccc13)-c1ccccc1-2 | 39.8 µM (inactive) | 69 µM (inactive) | 42.7 µM (inactive) | 49.3 µM (inactive) | 74.1 µM (inactive) | 41.4 µM (inactive) |  | 35.5 µM (inactive) | 20.4 µM (inactive)
COc1nc(NC2OCC(OC(C)=O)C(OC(C)=O)C2OC(C)=O)c(-c2csc(N)n2)c(=O)n1C (stereo unspecified) | > 100 µM (inactive) | > 100 µM (inactive) | > 100 µM (inactive) |  | > 100 µM (inactive) | > 100 µM (inactive) | > 100 µM (inactive) |  | > 100 µM (inactive)
CC1=CC(=O)c2c(C=O)c(O)c(O)c(C(C)C)c2C1=O | 16.5 µM (inactive) | 37.9 µM (inactive) | 29.1 µM (inactive) | 31 µM (inactive) | 22.6 µM (inactive) | 23.9 µM (inactive) |  | 20.6 µM (inactive) | 25.9 µM (inactive)
Cc1ccc(NC(=O)C2C(=O)N(c3ccc(C)c(C)c3)C(=O)C2N=N)cc1C (stereo unspecified) | > 100 µM (inactive) | > 100 µM (inactive) | > 100 µM (inactive) | 86.5 µM (inactive) | 61.5 µM (inactive) | > 100 µM (inactive) | > 100 µM (inactive) | > 100 µM (inactive) | > 100 µM (inactive)
COc1ccc2c3c([nH]c2c1[N+](=O)[O-])C(C)N(C)CC3 (stereo unspecified) | 69 µM (inactive) | > 100 µM (inactive) | 62.4 µM (inactive) | > 100 µM (inactive) | > 100 µM (inactive) | > 100 µM (inactive) |  | > 100 µM (inactive) | 19.4 µM (inactive)
CCN(CC)/C(=C\Cl)Nc1ccccn1.[O-][Cl+3]([O-])([O-])O | > 100 µM (inactive) | > 100 µM (inactive) | > 100 µM (inactive) | > 100 µM (inactive) | > 100 µM (inactive) | > 100 µM (inactive) | > 100 µM (inactive) | > 100 µM (inactive) | > 100 µM (inactive)
CCc1cc(C)cc2[n+]1CC=C2C.[O-][Cl+3]([O-])([O-])[O-] | 80.5 µM (inactive) | > 100 µM (inactive) | > 100 µM (inactive) | 92 µM (inactive) |  | > 100 µM (inactive) |  |  | 1.72 µM (inactive)
O=C1CC(c2ccccc2)NCN1 (stereo unspecified) | > 100 µM (inactive) | > 100 µM (inactive) | > 100 µM (inactive) | > 100 µM (inactive) | > 100 µM (inactive) | > 100 µM (inactive) |  |  | > 100 µM (inactive)
CC(=O)OCc1cc2c(s1)C(=O)c1sccc1C2=O | 0.308 µM (active) | < 0.01 µM (active) | 2.24 µM (inactive) | 0.155 µM (active) | 0.149 µM (active) | 0.187 µM (active) |  |  | 0.145 µM (active)
Cc1c(C(=O)/C=C/c2ccccc2O)c(=O)n(-c2ccccc2)n1C | 16.7 µM (inactive) | 23.9 µM (inactive) | 31.6 µM (inactive) | 22.2 µM (inactive) | 24.6 µM (inactive) | 14.3 µM (inactive) |  | 19.1 µM (inactive) | 
O=C1C2CCN(CC2)C1CN1CCOCC1 (stereo unspecified) | 2 µM (inactive) | 13.4 µM (inactive) | 18.2 µM (inactive) | 11.8 µM (inactive) |  | 1.65 µM (inactive) | 16.9 µM (inactive) | 5.05 µM (inactive) | 7.59 µM (inactive)
COc1cc2c(c(OC)c1OC)-c1ccc(SC)c(=O)cc1C(CC(=O)Oc1ccc(F)cc1)C2 (stereo unspecified) | 0.31 µM (active) | 0.236 µM (active) | 0.124 µM (active) | 0.193 µM (active) | 0.26 µM (active) | 0.288 µM (active) |  | 0.318 µM (active) | 0.53 µM (active)
O=C(O)c1c(-c2cccc3ccccc23)sc(-c2cccc3ccccc23)c1C(=O)O | > 100 µM (inactive) | > 100 µM (inactive) | 50 µM (inactive) | > 100 µM (inactive) | > 100 µM (inactive) | > 100 µM (inactive) |  | 18.2 µM (inactive) | 96.2 µM (inactive)
CCOC1=C2C(=O)OC(=O)C2C2CCCCC2=C1 (stereo unspecified) | > 100 µM (inactive) | > 100 µM (inactive) |  | > 100 µM (inactive) | > 100 µM (inactive) | > 100 µM (inactive) |  | > 100 µM (inactive) | 
O=C(N/C(=C\c1ccc(/C=C(\NC(=O)c2ccccc2)c2nc3cc(Cl)ccc3[nH]2)cc1)c1nc2cc(Cl)ccc2[nH]1)c1ccccc1 | 22.9 µM (inactive) | 32.2 µM (inactive) | 18 µM (inactive) | 13.8 µM (inactive) | 22.9 µM (inactive) | 27.7 µM (inactive) |  | 35.1 µM (inactive) | 8.91 µM (inactive)
COc1cc2c(cc1OC)[Se]c1cc(OC)c(OC)cc1[Se]2 | > 10 µM (inactive) | > 10 µM (inactive) | > 10 µM (inactive) | 38.1 µM (inactive) | 5.61 µM (inactive) | > 10 µM (inactive) |  | > 10 µM (inactive) | 16.6 µM (inactive)
COc1c(O)c2c3c(cc(C)cc3c1C(C)C)OC2 | > 100 µM (inactive) | > 100 µM (inactive) | > 100 µM (inactive) | > 100 µM (inactive) |  | > 100 µM (inactive) |  | > 100 µM (inactive) | > 100 µM (inactive)
O=C(CSc1nnc[nH]1)C[P+](c1ccccc1)(c1ccccc1)c1ccccc1 | > 100 µM (inactive) | > 100 µM (inactive) | > 100 µM (inactive) | > 100 µM (inactive) | 97.1 µM (inactive) | > 100 µM (inactive) |  | 85.1 µM (inactive) | 
C/C(=N\NC(=O)c1ccccc1O)c1cccc(/C(C)=N/NC(=O)c2ccccc2O)n1 | 2.22 µM (inactive) |  |  |  | 2.66 µM (inactive) |  |  | 18.6 µM (inactive) | 
